Patent US20180155757A1, “IDENTIFICATION OF BACTERIA THAT ARE RESISTANT TO CARBAPENEMS BY MEMBRANE IMPERVIOUSNESS” (BIOMÉRIEUX, priority 2015, published 2018)
Where two headings read alike, the source gives them in different places.

Key:
Assay in all cases: Etest MIC of indicator carbapenems on MH II agar without/with PMBN
Type in all cases: cell-based
[1] = system: Enterobacter aerogenes EA 15038 (porin+)
Description: (§1) The determinations of antibiotic MIC were carried out on solid culture media with the Etest® method. To do this, Etest® strips (bioMérieux, France) were used: • Etest® Imipenem IM 32, and • Etest® Ertapenem ETP 32, and also solid culture media, differing from one another by virtue of their non-inhibitory concentrations of PMBN.
(§2) These solid culture media are prepared in Petri dishes (0=145 mm; V=50 ml) on a base of MH II Agar (Becton Dickinson®, United States), more or less supplemented with PMBN. The PMBN concentrations range from 0 up to concentrations equivalent to one fifth of the MIC of PMBN (⅕ MICPMBN).
(§3) Using a swab and the Retro C80™ rota-plater (bioMérieux, France), the culture media were inoculated with the bacteria, originating from an inoculum of 0.5 McFarland, prepared in 0.85% NaCl solution from colonies subcultured the day before on MH II agar.
(§4) The various Etest® strips are then deposited on the surface of the culture media. After 16 to 20 hours of incubation at 35° C., the MICS were read.

[2] = system: Enterobacter aerogenes EA 2 (porin+); conditions: Klebsiella aerogenes
Description: as §1, §2, §3, §4

E. aerogenes 9203076 = system: E. aerogenes 9203076
Description: as §1, §2, §3, §4
(§5) To do this, imipenem and ertapenem were used as indicator carbapenems. Non-inhibitory concentrations of PMBN, equivalent to concentrations of one tenth ( 1/10), one eighth (⅛) and one fifth (⅕) of the MIC of PMBN, were applied.
(§6) In the light of the MICPMBN values previously identified, very predominantly much higher than 300 μg/ml, the following standard concentrations were retained and applied to the bacterial strains to be tested: 50, 100, 150, 200 and 300 μg/ml.
(§7) By way of indicator carbapenems according to the invention, in addition to imipenem (IM) and ertapenem (ETP), meropenem (MP) was also tested. Like the other two antibiotics, meropenem was used in the form of Etest® strips (Etest® Meropenem MP 32 from the company bioMérieux, France).
(§8) The methods used to prepare the new culture media and to carry out the antibiotic-sensitivity tests are identical to those described above.

E. aerogenes 1204048 = conditions: in µg/mL
Description: as §1, §2, §3, §4, §5, §6, §7, §8

E. coli 1204043 = system: E. coli 1204043
Description: as §1, §2, §3, §4, §5, §6, §7, §8

K. pneumoniae 1002015 = system: K. pneumoniae 1002015
Description: as §1, §2, §3, §4, §5, §6, §7, §8

C[C@@H](O)[C@H]1C(=O)N2C(C(=O)O)=C(S[C@@H]3CN[C@H](C(=O)Nc4cccc(C(=O)O)c4)C3)[C@H](C)[C@H]12 [ETP, ertapenem]
MIC ([1]; EA 15038 (porin+), [PMBN] MIC/8): 0.125 µg/mL | MIC ([1]; Klebsiella aerogenes): 0.125 µg/mL | MIC ([1]; Klebsiella aerogenes, EA 15038 (porin+), [PMBN] 0, read-out: MIC): 0.25 µg/mL | MIC ([1]; Klebsiella aerogenes, EA 15038 (porin+), [PMBN] MIC/5, read-out: MIC): 0.06 µg/mL | MIC [2]: 0.125 µg/mL | MIC ([2]; EA 2 (porin+), [PMBN] 0, read-out: MIC): 0.03 µg/mL | MIC ([2]; EA 2 (porin+), [PMBN] MIC/8, read-out: MIC): 0.25 µg/mL | MIC ([2]; EA 2 (porin+), [PMBN] MIC/10, read-out: MIC): 0.25 µg/mL | MIC (E. aerogenes 9203076; E. aerogenes 9203076 (membrane impermeability), [PMBN] 0, Table 4a, in µg/mL): >32 | MIC (E. aerogenes 9203076; E. aerogenes 9203076 (membrane impermeability), [PMBN] 100, Table 4a, in µg/mL): 16 | MIC (E. aerogenes 9203076; E. aerogenes 9203076 (membrane impermeability), [PMBN] 200, Table 4a, in µg/mL): 12 | MIC (E. aerogenes 9203076; E. aerogenes 9203076 (membrane impermeability), [PMBN] 300, Table 4a, in µg/mL): 4 | MIC (E. aerogenes 9203076; E. aerogenes 9203076, [PMBN] 0, Table 3, in µg/mL): 32 | MIC (E. aerogenes 9203076; E. aerogenes 9203076, [PMBN] MIC/5, in µg/mL): 2 | MIC (E. aerogenes 9203076; E. aerogenes 9203076, [PMBN] MIC/8, in µg/mL): 4 | MIC (E. aerogenes 9203076; E. aerogenes 9203076, [PMBN] MIC/10, in µg/mL): 4 | MIC (E. aerogenes 9203076; Klebsiella aerogenes, 9203076, E. aerogenes 9203076 (porin−), [PMBN] 0, Table 4, read-out: MIC): 24 µg/mL | MIC (E. aerogenes 9203076; Klebsiella aerogenes, 9203076, E. aerogenes 9203076 (porin−), [PMBN] 150 μg/ml, Table 4, read-out: MIC): 3 µg/mL | MIC (E. aerogenes 9203076; Klebsiella aerogenes, 9203076, E. aerogenes 9203076 (porin−), [PMBN] 200 μg/ml, Table 4, read-out: MIC): 1.5 µg/mL | MIC (E. aerogenes 1204048; E. aerogenes 1204048 (membrane impermeability), [PMBN] 0, Table 4a): >32 | MIC (E. aerogenes 1204048; E. aerogenes 1204048 (membrane impermeability), [PMBN] 100, Table 4a): 16 | MIC (E. aerogenes 1204048; E. aerogenes 1204048 (membrane impermeability), [PMBN] 200, Table 4a): 16 | MIC (E. aerogenes 1204048; E. aerogenes 1204048 (membrane impermeability), [PMBN] 300, Table 4a): 8 | MIC (E. aerogenes 1204048; E. aerogenes 1204048, [PMBN] 0, Table 3): 32 | MIC (E. aerogenes 1204048; E. aerogenes 1204048, [PMBN] MIC/5): 2 | MIC (E. aerogenes 1204048; E. aerogenes 1204048, [PMBN] MIC/8): 2 | MIC (E. aerogenes 1204048; E. aerogenes 1204048, [PMBN] MIC/10): 4 | MIC (E. coli 1204043; E. coli 1204043 (membrane impermeability), [PMBN] 0, Table 4a, in µg/mL): >32 | MIC (E. coli 1204043; E. coli 1204043 (membrane impermeability), [PMBN] 100, Table 4a, in µg/mL): 6 | MIC (E. coli 1204043; E. coli 1204043 (membrane impermeability), [PMBN] 200, Table 4a, in µg/mL): 2-4 | MIC (E. coli 1204043; E. coli 1204043 (membrane impermeability), [PMBN] 300, Table 4a, in µg/mL): 1.5 | MIC (E. coli 1204043; E. coli 1204043, [PMBN] 0, Table 3, in µg/mL): 32 | MIC (E. coli 1204043; E. coli 1204043, [PMBN] MIC/5, in µg/mL): 1 | MIC (E. coli 1204043; E. coli 1204043, [PMBN] MIC/8, in µg/mL): 2 | MIC (E. coli 1204043; E. coli 1204043, [PMBN] MIC/10, in µg/mL): 1 | MIC (E. coli 1204043; Escherichia coli, 1204043, E. coli 1204043 (porin−), [PMBN] 0, Table 4, read-out: MIC): > 32 µg/mL | MIC (E. coli 1204043; Escherichia coli, 1204043, E. coli 1204043 (porin−), [PMBN] 150 μg/ml, Table 4, read-out: MIC): 0.38 µg/mL | MIC (E. coli 1204043; Escherichia coli, 1204043, E. coli 1204043 (porin−), [PMBN] 200 μg/ml, Table 4, read-out: MIC): 0.19 µg/mL | MIC (K. pneumoniae 1002015; K. pneumoniae 1002015, [PMBN] 0, Table 3): 32 µg/mL | MIC (K. pneumoniae 1002015; K. pneumoniae 1002015, [PMBN] MIC/5): 1 µg/mL | MIC (K. pneumoniae 1002015; K. pneumoniae 1002015, [PMBN] MIC/8): 2 µg/mL | MIC (K. pneumoniae 1002015; K. pneumoniae 1002015, [PMBN] MIC/10): 4 µg/mL | MIC (K. pneumoniae 1002015; Klebsiella pneumoniae, 1002015, K. pneumoniae 1002015 (porin−), [PMBN] 0, Table 4, read-out: MIC): 4 µg/mL | MIC (K. pneumoniae 1002015; Klebsiella pneumoniae, 1002015, K. pneumoniae 1002015 (porin−), [PMBN] 150 μg/ml, Table 4, read-out: MIC): 0.5 µg/mL
